# Results taken from patent US20100015111A1, “Methods And Kits For The Treatment Inhibition, And Maintenance Of Gastrointestinal Disorders” (priority 2008, published 2010).
# Tested on: dextran sulfate salt (DSS) induced chronic ulcerative colitis in male Swiss-Webster mice
# Assay: Olsalazine on dextran sulfate salt (DSS) induced chronic ulcerative colitis in mice
# Type: in vivo
# Settings: for survival to necropsy day: 3% DSS days 0-14, 15% in disease controls; for mean body weight loss at study end: 3% DSS, disease control lost 3.90 g; for colon content score (mean, scale 0-3) / mean colon length / inhibition of decreased colon length: day 14; for colon content score (mean, scale 0-3): disease control mean 2.67; for mean colon length: normal 10.60, disease control 6.33; for inhibition of decreased colon length: vs disease control
# Description: A study was conducted to determine the effect of Olsalazine on dextran sulfate salt (DSS) induced chronic ulcerative colitis in male Swiss-Webster mice. Groups of 20 male Swiss-Webster mice were allowed ad libitum access to Olsalazine qd beginning on day −3 and then continued daily (qd) or every two days (q2d) starting on day 0 and continuing through day 14. Dipentum®, Olsalazine Sodium is a sodium salt of salicylate, disodium 3,3′-azobis(6-hydroxybenzoate) and when exposed to colonic bacteria converts to mesalamine. In this animal model, male Swiss-Webster mice are exposed to DSS (3% days 0-14) to induce inflammation and gland loss with erosion in the colon.
# Dextran sulfate, molecular weight 40-50,000 (sodium salt, Spectrum Chemicals, New Brunswick, N.J., Lot#RA1107) was stored at room temperature until added to appropriate volumes of tap water to prepare sufficient 3% DSS solutions. Prepared solutions were stored at 4° C. and added to water bottles daily. Every 3rd day, water in all bottles was discarded and replaced with fresh DSS preparations or tap water (normal controls). Dipentum® (Olsalazine Sodium) was received from the sponsor in hard gelatin capsule form. Capsules were received and each capsule contained 250 mg. On study day −3, 51 capsules were opened (˜12.75 grams) and the contents of each were consolidated into a labeled vial. Appropriate amounts of the beige-orange compound was then added to 250 ml water bottles so that each bottle would contain ˜0.83 mg/ml Olsalazine suspension in the water.
# • Male Swiss-Webster mice weighing approximately 22-29 grams on day (−)3 were obtained from Harlan, Inc (Indianapolis, Ind.). Animals were identified by color-coded dots at the base of the tail delineating group and animal number. After randomization, all cages were labeled with protocol number, group and animal numbers with appropriate color-coding.
# Animals (5/group/normal control, 20/group for diseased treated), housed 5/cage, were given 3.0% DSS in their water from test days 0-14. Olsalazine treatment was initiated on day −3 and continued daily through day 14, or on days −3, −2, −1, 0, 2, 4, 6, 8, 10, 12, and 14 for the q2d group. Animals were terminated on day 14. • Experimental groups were as follows:
# Animals were weighed on study days −3 to 14. On day 14 mice were weighed, euthanized, and the entire colon was removed and the length determined. The colons were scored for gross changes using the following criteria:
# 0=normal, no blood observed
# 2=semi-solid to fluid stool
# 3=semi-solid with definite evidence of blood, bloody fluid or no content
# Only animals that survived to study termination were included in the analysis of terminal colon lengths and scores.
# For each surviving animal, the entire colon (proximal and distal) was trimmed into 8 equally spaced pieces for processing and embedding. Sections were stained with hemotoxylin and eosin (H&E). For each colon section, submucosal edema was quantified by measuring the distance (mm) from the muscularis mucosa to the internal border of the outer muscle layer in representative areas of edema. The extent of inflammation (foamy macrophages, lymphocytes and polymorphonuclear cell infiltrate) was assigned severity scores according to the following ranking:
# The parameters reflecting epithelial cell loss/damage were scored individually using a percent area involved scoring method:
# Parameters that were scored using the above percent involvement scale include: • 1) Colon glandular loss—includes crypt epithelial as well as remaining gland epithelial loss. • 2) Colon erosion—reflects loss of surface epithelium and generally is associated with mucosal hemorrhage (seen clinically and at necropsy).
# Mucosal epithelial hyperplasia (basophilia, mitotic figures, multi-layered on basement membranes, absence of goblet cells) was scored 0-5 based on the following criteria […]
# [1] = Olsalazine ad libitum, q2d, compared to disease controls
# [2] = Olsalazine ad libitum, q2d, histopathology day 14, non significant
# [3] = Olsalazine ad libitum, qd, histopathology day 14
# [4] = Olsalazine ad libitum, qd, histopathology day 14, non significant
# [5] = Olsalazine ad libitum, qd, histopathology day 14, significant
smiles,measurement,setting,value
"O=C([O-])c1cc(N=Nc2ccc(O)c(C(=O)[O-])c2)ccc1O.[Na+].[Na+] [Olsalazine, disodium 3,3′-azobis(6-hydroxybenzoate)]",survival to necropsy day,"Olsalazine ad libitum in water (~0.83 mg/ml), every day (qd), day -3 to 14",75%
same,survival to necropsy day,"Olsalazine ad libitum, every other day (q2d): days -3,-2,-1,0,2,...14",50%
same,mean body weight loss at study end,"Olsalazine ad libitum, q2d",3.10 g
same,inhibition of mean hyperplasia score,[1],11%
same,inhibition of mucosal thickness,[1],17%
same,"colon content score (mean, scale 0-3)","Olsalazine ad libitum, q2d",2.70
same,mean colon length,"Olsalazine ad libitum, q2d",7.1 cm
same,inhibition of decreased colon length,"Olsalazine ad libitum, q2d",18%
same,inhibition of colon gland loss,"Olsalazine ad libitum, q2d, histopathology day 14",32%
same,inhibition of colon edema,[2],21%
same,inhibition of colon erosion,[2],27%
same,inhibition of colon inflammation,[2],27%
same,inhibition of sum colon histopathologic score,[2],29%
same,mean body weight loss at study end,"Olsalazine ad libitum, qd",4.78 g
same,inhibition of mean hyperplasia score,"Olsalazine ad libitum, qd, compared to disease control",16%
same,"colon content score (mean, scale 0-3)","Olsalazine ad libitum, qd",2.33
same,mean colon length,"Olsalazine ad libitum, qd",7.33 cm
same,inhibition of decreased colon length,"Olsalazine ad libitum, qd",23%
same,inhibition of colon erosion,[3],32%
same,inhibition of increase of mucosal thickness,[3],32%
same,inhibition of colon edema,[4],22%
same,inhibition of sum colon histopathologic score,[4],35%
same,inhibition of colon gland loss,[5],32%
same,inhibition of colon inflammation,[5],33%
